# In US5773644A, “Cyclopropyl alkanoic acid derivatives” (G. D. Searle & Co., priority 1997, dated 1998):
# Counter-ions that a name gives are not always drawn. Like-named read-outs stand apart in the source and are kept apart here.
# Assays:
# [1] = target: T1, Human vitronectin receptor (αv β3) (Homo sapiens, UniProt P05106+P06756); experiment: Vitronectin adhesion assay (solid phase receptor assay, competition with biotinylated vitronectin); assay type: binding
# T1 construct: Human vitronectin receptor(αv β3) was purified from human placenta; from tissue; host or cells: human placenta
# Description: Human vitronectin receptor(αv β3) was purified from human placenta as previously described [Pytela et al., Methods in Enzymology, 144:475-489 (1987)]. Human vitronectin was purified from fresh frozen plasma as previously described [Yatohgo et al., Cell Structure and Function, 13:281-292 (1988)]. Biotinylated human vitronectin was prepared by coupling NHS-biotin from Pierce Chemical Company (Rockford, Ill.) to purified vitronectin as previously described [Charo et al., J. Biol. Chem., 266(3):1415-1421 (1991)]. Assay buffer, OPD substrate tablets, and RIA grade BSA were obtained from Sigma (St. Louis, Mo.). Anti-biotin antibody was obtained from Calbiochem (La Jolla, Calif.). Linbro microtiter plates were obtained from Flow Labs (McLean, Va.). ADP reagent was obtained from Sigma (St. Louis, Mo.). This assay was essentially the same as previously reported [Niiya et al., Blood, 70:475-483 (1987)]. The purified human vitronectin receptor (αv β3) was diluted from stock solutions to 1.0 μg/mL in Tris-buffered saline containing 1.0 mM Ca^++, Mg^++, and Mn^++, pH 7.4 (TBS^+++). The diluted receptor was immediately transferred to Linbro microtiter plates at 100 μL/well (100 ng receptor/well). The plates were sealed and incubated overnight at 4° C. to allow the receptor to bind to the wells. All remaining steps were at room temperature. The assay plates were emptied and 200 μL of 1% RIA grade BSA in TBS^+++ (TBS^+++ /BSA) were added to block exposed plastic surfaces. Following a 2 hour incubation, the assay plates were washed with TBS^+++ using a 96 well plate washer. Logarithmic serial dilution of the test compound and controls were made starting at a stock concentration of 2 mM and using 2 nM biotinylated vitronectin in TBS^+++ /BSA as the diluent. This premixing of labeled ligand with test (or control) ligand, and subsequent transfer of 50 μL aliquots to the assay plate was carried out with a CETUS Propette robot; the final concentration of the labeled ligand was 1 nM and the highest concentration of test compound was 1.0×10^-4 M. The competition occurred for two hours after which all wells were washed with a plate washer as before. Affinity purified horseradish peroxidase labeled goat anti-biotin antibody was diluted 1:3000 in TBS^+++ /BSA and 125 μL were added to each well. After 30 minutes, the plates were washed and incubated with OPD/H2 O2 substrate in 100 mM/L Citrate buffer, pH 5.0. The plate was read with a microtiter plate reader at a wavelength of 450 nm and when the maximum-binding control wells reached an absorbance of about 1.0, the final A450 were recorded for analysis. The data were analyzed using a macro written for use with the EXCEL™ spreadsheet program. The mean, standard deviation, and %CV were determined for duplicate concentrations. The mean A450 values were normalized to the mean of four maximum-binding controls (no competitor added) (B-MAX). The normalized values were subjected to a four parameter curve fit algorithm [Rodbard et al., Int.
# [2] = target: T2, Human fibrinogen receptor (αIIb β3) (Homo sapiens, UniProt P05106+P08514); experiment: Purified IIb/IIIa receptor assay (solid phase receptor assay, competition with biotinylated vitronectin); conditions: inhibition of 50% of maximum binding of 1 nM biotinylated vitronectin; 2 h competition, room temperature, TBS+++ pH 7.4
# T2 construct: Human fibrinogen receptor (αIIb β3) was purified from outdated platelets; from tissue; host or cells: outdated platelets (human)
# Excerpt: Human fibrinogen receptor (αIIb β3) was purified from outdated platelets. (Pytela, R., Pierschbacher, […]., Suzuki, S., and […] acid adhesion receptors", Methods in Enzymology 144(1987):475-489.) Human vitronectin was purified from fresh frozen plasma as described in Yatohgo, T., Izumi, M., Kashiwagi, H., and Hayashi, M., "Novel purification of vitronectin from human plasma by heparin affinity chromatography," Cell Structure and Function 13(1988):281-292. Biotinylated human vitronectin was prepared by coupling NHS-biotin from Pierce Chemical Company (Rockford, Ill.) to purified vitronectin as previously described. (Charo, […]., Phillips, D. R., Hsu, M. A., Scarborough, R. M., "Inhibition of fibrinogen binding to GP IIb/IIIa by a GP IIIa peptide", J. Biol. Chem. 266(3) (1991): 1415-1421.) Assay buffer, OPD substrate tablets, and RIA grade BSA were obtained from Sigma (St. Louis, Mo.). Anti-biotin antibody was obtained from Calbiochem (La Jolla, Calif.). Linbro microtiter plates were obtained from Flow Labs (McLean, Va.). ADP reagent was obtained from Sigma (St. Louis, Mo.). This assay is essentially the same reported in […]., Bader, R., Byers-Ward, […]., Plow, E. F. and Ruggeri, Z. M., "Increased surface expression of the membrane glycoprotein IIb/IIIa complex induced by platelet activation: Relationships to the binding of fibrinogen and platelet aggregation", Blood 70(1987):475-483. The purified human fibrinogen receptor (αIIb β3) was diluted from stock solutions to 1.0 μg/mL in Tris-buffered saline containing 1.0 mM Ca^++, Mg^++, and Mn^++, pH 7.4 (TBS^+++). The diluted receptor was immediately transferred to Linbro microtiter plates at 100 μL/well (100 ng receptor/well). The plates were sealed and incubated overnight at 4° C. to allow the receptor to bind to the wells. All remaining steps were at room temperature. The assay plates were emptied and 200 μL of 1% RIA grade BSA in TBS^+++ (TBS^+++ /BSA) were added to block exposed plastic surfaces. Following a 2 hour incubation, the assay plates were washed with TBS^+++ using a 96 well plate washer. Logarithmic serial dilution of the test compound and controls were made starting at a stock concentration of 2 mM and using 2 nM biotinylated vitronectin in TBS^+++ /BSA as the diluent. This premixing of labeled ligand with test (or control) ligand, and subsequent transfer of 50 μL aliquots to the assay plate was carried out with a CETUS Propette robot; the final concentration of the labeled ligand was 1 nM and the highest concentration of test compound was 1.0×10^-4 M. The competition occurred for two hours after which all wells were washed with a plate washer as before. Affinity purified horseradish peroxidase labeled goat anti-biotin antibody was diluted 1:3000 in TBS^+++ /BSA and 125 μL were added to each well. After 30 minutes, the plates were washed and incubated with […]/H2 O2 substrate in 100 mM/L citrate buffer, pH 5.0. The plate was read with a microtiter plate reader at a wavelength of 450 nm and when the maximum-binding control wells reached an absorbance of about 1.0, the final A450 were recorded for analysis. The data were analyzed using a macro written for use with the EXCELTM spreadsheet program. The mean, standard deviation, and %CV were determined for duplicate concentrations. The mean A450 values were normalized to the mean of four maximum-binding controls (no competitor added) (B-MAX). The normalized values were subjected to a four parameter curve fit algorithm, [Robard et al., Int.
# [3] = inhibition of 50% of maximum binding of 1 nM biotinylated vitronectin, 2 h competition, room temperature, TBS+++ pH 7.4, read-out: AVB3 IC50
"IC50 [1, 3] [nM]",IC50 [2] [nM],"IC50 ([1]; positive control included on each plate, stated range, read-out: αv β3 antagonist IC50 (positive control)) [nM]",Compound
122,9700,,"N=C(N)Nc1cc(C(=O)Nc2ccc(C3CC3C(=O)O)cc2)cc(C(F)(F)F)c1 (stereo not drawn) [Example 6, 2-[4-[[[3-[(aminoiminomethyl)amino]-5-(trifluoromethyl)phenyl]carbonyl]amino]phenyl]cyclopropanecarboxylic acid, trifluoroacetate salt]"
19,4800,,"O=C(Nc1ccc(C2CC2C(=O)O)cc1)c1cccc(NC2=NCCCN2)c1 (stereo not drawn) [Example 7, 2-[4-[[[3-[(1,4,5,6-tetrahydropyrimidin-2-yl)amino]phenyl]carbonyl]amino]phenyl]cyclopropanecarboxylic acid, trifluoroacetate salt]"
1380,13100,,"NC(=O)N=C(N)Nc1cccc(C(=O)Nc2ccc(C3CC3C(=O)O)cc2)c1 (stereo not drawn) [Example 8, 2-[4-[[[3-[(amino[(aminocarbonyl)imino]methyl]amino]phenyl]carbonyl]amino]phenyl]cyclopropanecarboxylic acid, trifluoroacetate salt]"
,,3 to 10,"N=C(N)NCCCCC(=O)NCC(=O)NC(CC(=O)O)c1cccnc1 (stereo not drawn) [β-[[2-[[5-[(aminoiminomethyl)amino]-1-oxopentyl]amino]-1-oxoethyl]amino]-3-pyridinepropanoic acid, reference compound]"

# Second part, the compound before the results:
Compound,"IC50 [1, 3] [nM]",IC50 [2] [nM],"IC50 ([1]; positive control included on each plate, stated range, read-out: αv β3 antagonist IC50 (positive control)) [nM]"
"2-[3-[[[[3-[(aminoiminomethyl)amino]phenyl]carbonyl]amino]methyl]phenyl]cyclopropanecarboxylic acid, trifluoroacetate salt [Example 3]",923,5280,
"CCOC(=O)C1CC1c1ccc(NC(=O)c2cccc(NC(=N)N)c2)cc1 (stereo not drawn) [Example 1, ethyl 2-[4-[[[3-[(aminoiminomethyl)amino]phenyl]carbonyl]amino]phenyl]cyclopropanecarboxylate, monohydrate trifluoroacetate salt]",525,3650,
"N=C(N)Nc1cccc(C(=O)Nc2ccc(C3CC3C(=O)O)cc2)c1 (stereo not drawn) [Example 2, 2-[4-[[[3-[(aminoiminomethyl)amino]phenyl]carbonyl]amino]phenyl]cyclopropanecarboxylic acid, trifluoroacetate salt]",30.5,533,
"COc1cc(NC(=O)c2cccc(NC(=N)N)c2)ccc1C1CC1C(=O)O (stereo not drawn) [Example 5, 2-[4-[[[3-[(aminoiminomethyl)amino]phenyl]carbonyl]amino]-2-methoxyphenyl]cyclopropanecarboxylic acid, trifluoroacetate salt]",81.1,2890,
